The values that follow come from patent US8541210B2, “Producing eicosapentaenoic acid (EPA) from biodiesel-derived crude glycerol” (Virginia Tech Intellectual Properties, Inc., priority 2008, dated 2013).

SMILES strings stand for the structures.

One experiment deals with P. irregulare. Nature of the experiment: Effects of methanol on fungal growth. The conditions noted are these: 20 g/L pure glycerol spiked with 2, 4, and 8 g/L methanol; filter-sterilised; spores inoculated. Type of experiment: cell-based, Pythium irregulare. The text has this: The crude glycerol used in this work contained ˜12% (w/w) methanol. […] To study the “true” effects of methanol on fungal growth and EPA production, we prepared a medium containing 20 g/L pure glycerol spiked with 2, 4, and 8 g/L methanol. The medium was then passed through a 0.2 μm filter before fungal spores were inoculated. […] The result clearly indicated the negative effects of methanol on growth and EPA production of P. irregulare.

Experiment [1] has as its system Pythium irregulare (ATCC 10951). Nature of the experiment: Growth and EPA production of P. irregulare with glucose, pure glycerol or crude glycerol as carbon source. Type of experiment: cell-based. The conditions noted are these: FIG. 1A; substrate around 20 g/L.

As to `CO` [methanol], the “growth in methanol-containing medium” value with P. irregulare is reported as “did not observe any growth”. Regarding `OCC(O)CO` [Pure glycerol, glycerol], in experiment [1], the cell growth result is on record as “supported cell growth”.
